{
  "source": "patent US12448425B2",
  "about": "“Therapeutic peptides” (Board of Regents, The University of Texas System, priority 2019, dated 2025)",
  "tested_on": "A2780cp20-Luc tumors",
  "experiment": "Orthotopic A2780cp20-Luc ovarian cancer model",
  "format": "in vivo, mouse",
  "text": "Female nude mice were intraperitoneally (i.p.) inoculated with […] tumor cells. […] Tumor growth was monitored by bioluminescence imaging (IVIS). […] CTL, untreated control.\nOrthotopic ovarian cancer models. […] For all therapeutic experiments, groups of the mice (n=8-10) were inoculated intraperitoneally with A2780cp20-Luc cells. […] Untreated mice were used as a control.\nImmunoblotting, immunoprecipitation, and co-immunoprecipitation. For immunoblotting, lysates from cultured cells were prepared using modified radioimmunoprecipitation assay (RIPA) buffer (50 mM Tris-HCl [pH 7.4], 150 mM NaCl, 1% Triton, 0.5% deoxycholate) plus 25 μg/mL leupeptin, 10 μg/mL aprotinin, 2 mM EDTA, and 1 mM sodium orthovanadate. To prepare lysates of snap-frozen tissue from mice, approximately 30-mm^3 cuts of tissue were disrupted with a tissue homogenizer and subjected to centrifugation at 13,000 rpm for 30 min in modified RIPA buffer. The protein concentrations were determined by using a BCA Protein Assay Reagent kit (Pierce Biotechnology, Rockford, IL). Lysates were loaded and separated by 8% sodium dodecyl sulfate (SDS)-polyacrylamide gel electrophoresis (PAGE). Proteins were transferred to a nitrocellulose membrane by semidry electrophoresis (Bio-Rad Laboratories, Hercules, CA) overnight, blocked with 3% BSA for 1 h, and then incubated at 4° C. with primary antibody overnight. After washing with a mixture of tris-buffered saline and Tween 20 (TBST) solutions, the membranes were incubated with horseradish peroxidase (HRP)-conjugated horse anti-mouse IgG (1:2000, GE Healthcare, Amersham Place, UK) for 2 h. HRP was visualized by an enhanced chemoluminescence detection kit (Pierce). […] Densitometry was performed using ImageJ software. For immunoprecipitation and co-immunoprecipitation, cells were subjected to lysis in non-denaturing NP40 cell lysis buffer (Cell Signaling Technology, Boston, MA). The extracts were incubated with A/G-conjugated antibody at 4° C. for 2 h, and for immunoprecipitation the beads were washed twice with RIPA buffer, once with 0.5 m LiCl in 0.1 m Tris (pH 8.0), and once with PBS. Reactions were boiled in sample buffer, and proteins were then subjected to 10% SDS-PAGE and immunoblotting.\nImmunofluorescence analysis of CD31 was performed on 5-μm-thick fresh-frozen tissue samples. After deblocking with acetone, acetone-chloroform (1:1), and acetone for 5 min, non-specific binding was blocked with 4% fish gelatin (Biotium Inc, Hayward, CA) in PBS for 30 min.\nImmunohistochemistry (IHC) analysis.",
  "data": [
    {"substance": "CCPM-BIDEN-AP: nano-conjugate of Cys-BIDEN-AP on core-crosslinked polymeric micelles via maleimide (GMBS) (CTNYLFSPNGPIARAW; D-residues)", "values": [
      {"measurement": "bioluminescence signal intensity", "setting": "day 28, 13 mg/kg/injection i.p., 10 doses", "value": "significantly reduced the bioluminescence signal intensity"},
      {"measurement": "metastatic nodules, comparison of the two agents", "setting": "day 31", "value": "reduced metastatic nodules to a greater extent than BIDEN-AP"},
      {"measurement": "tumor growth in the peritoneum (tumor weight, number of metastatic nodules)", "setting": "day 31, 13 mg/kg/injection i.p., 10 doses", "value": "significantly reduced tumor growth"},
      {"measurement": "apoptotic cell death in CD31 endothelial vasculature (TUNEL)", "setting": "excised tumors", "value": "induced apoptotic cell death"},
      {"measurement": "tumor cell proliferation (Ki67-positive cells)", "setting": "excised tumors", "value": "significantly reduced tumor cell proliferation"},
      {"measurement": "microvessel density (MVD)", "setting": "excised tumors, CD31", "value": "decreased microvessel density"},
      {"measurement": "EphB4 and Crk1 phosphorylation in vivo", "setting": "orthotopic A2780cp20 tumors", "value": "induce EphB4 and Crk1 phosphorylation"}
    ]}
  ]
}
